Test results from patent publication US20250250230A1, “HETEROCYCLIC COMPOUND” (TAKEDA PHARMACEUTICAL COMPANY LIMITED, priority 2022, published 2025).

molecular target: T1, human orexin type 2 receptor (Homo sapiens, UniProt O43614); test: Measurement of orexin type 2 receptor agonist activity (calcium fluorescence, Fluo-4 AM, FDSS); type: cell-based; details: test compound 3 μM; CHO cells expressing human OX2 receptor; DMSO = 0%, orexin A (human) = 100%
T1 construct: expressed in transfected cells
T1 sequence (O43614 1-444): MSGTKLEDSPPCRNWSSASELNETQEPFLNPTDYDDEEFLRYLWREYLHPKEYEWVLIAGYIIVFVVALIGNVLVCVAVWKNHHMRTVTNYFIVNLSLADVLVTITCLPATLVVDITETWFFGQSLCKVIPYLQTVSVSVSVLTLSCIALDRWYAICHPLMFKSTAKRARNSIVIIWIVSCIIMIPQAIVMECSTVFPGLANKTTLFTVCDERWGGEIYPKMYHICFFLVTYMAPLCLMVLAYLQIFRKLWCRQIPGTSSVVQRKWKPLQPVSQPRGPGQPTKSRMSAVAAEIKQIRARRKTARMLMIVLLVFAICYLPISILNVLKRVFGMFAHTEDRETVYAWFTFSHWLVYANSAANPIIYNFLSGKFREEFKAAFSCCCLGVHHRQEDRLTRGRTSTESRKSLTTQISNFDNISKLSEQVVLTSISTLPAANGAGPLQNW
In short: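 Agonist response scaled between vehicle (0%) and human orexin A at 10 nM final (100%), from 2-min kinetic Fluo-4 fluorescence reads. Stable hOX2R CHO-K1 clone, dye-loaded in HBSS/20 mM HEPES/0.1% BSA with 1.25 mM probenecid before compound addition.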

SMILES	OX2R agonist activity (3 μM, %)
CS(=O)(=O)NC1CCCN(C(=O)C2CC2c2ccc(C(F)F)cc2-c2c(F)cccc2F)CC1 (racemic) [Example 229, a mixture of rac-N-[(4R)-1-{(1R,2R)-2-[5-(difluoromethyl)-2′,6′-difluoro[1,1′-biphenyl]-2-yl]cyclopropane-1-carbonyl}azepan-4-yl]methanesulfonamide and rac-N-[(4S)-1-{(1R,2R)-2-[5-(difluoromethyl)-2′,6′-difluoro[1,1′-biphenyl]-2-yl]cyclopropane-1-carbonyl}azepan-4-yl]methanesulfonamide]	64%
CS(=O)(=O)NC1CCCN(C(=O)C2CC2c2ccc(C(F)F)cc2-c2c(F)cccc2F)C1 (racemic) [Example 230, a mixture of rac-N-[(3R)-1-{(1R,2R)-2-[5-(difluoromethyl)-2′,6′-difluoro[1,1′-biphenyl]-2-yl]cyclopropane-1-carbonyl}piperidin-3-yl]methanesulfonamide and rac-N-[(3S)-1-{(1R,2R)-2-[5-(difluoromethyl)-2′,6′-difluoro[1,1′-biphenyl]-2-yl]cyclopropane-1-carbonyl}piperidin-3-yl]methanesulfonamide]	91%
CS(=O)(=O)NC1CCCCN(C(=O)C2CC2c2sccc2-c2c(F)cccc2F)C1 (racemic) [Example 233, a mixture of rac-N-[(3R)-1-{(1R,2R)-2-[3-(2,6-difluorophenyl)thiophen-2-yl]cyclopropane-1-carbonyl}azepan-3-yl]methanesulfonamide and rac-N-[(3S)-1-{(1R,2R)-2-[3-(2,6-difluorophenyl)thiophen-2-yl]cyclopropane-1-carbonyl}azepan-3-yl]methanesulfonamide]	80%
CS(=O)(=O)NC1CCN(C(=O)C2CC2c2sccc2-c2c(F)cccc2F)C1 (racemic) [Example 235, a mixture of rac-N-[(3R)-1-{(1R,2R)-2-[3-(2,6-difluorophenyl)thiophen-2-yl]cyclopropane-1-carbonyl}pyrrolidin-3-yl]methanesulfonamide and rac-N-[(3S)-1-{(1R,2R)-2-[3-(2,6-difluorophenyl)thiophen-2-yl]cyclopropane-1-carbonyl}pyrrolidin-3-yl]methanesulfonamide]	89%
CCS(=O)(=O)NC12CC1CN(C(=O)C1CC1c1ccccc1-c1c(F)cccc1F)C2 (racemic) [Example 237, a mixture of rac-N-{(1S,5R)-3-[(1R,2R)-2-(2′,6′-difluoro[1,1′-biphenyl]-2-yl)cyclopropane-1-carbonyl]-3-azabicyclo[3.1.0]hexan-1-yl}ethanesulfonamide and rac-N-{(1R,5S)-3-[(1R,2R)-2-(2′,6′-difluoro[1,1′-biphenyl]-2-yl)cyclopropane-1-carbonyl]-3-azabicyclo[3.1.0]hexan-1-yl}ethanesulfonamide]	99%
Cc1cc(-c2c(F)cccc2F)c(C2CC2C(=O)N2CCCC(NS(C)(=O)=O)CC2)cn1 (racemic) [Example 266, a mixture of rac-N-[(4R)-1-{(1R,2R)-2-[4-(2,6-difluorophenyl)-6-methylpyridin-3-yl]cyclopropane-1-carbonyl}azepan-4-yl]methanesulfonamide and rac-N-[(4S)-1-{(1R,2R)-2-[4-(2,6-difluorophenyl)-6-methylpyridin-3-yl]cyclopropane-1-carbonyl}azepan-4-yl]methanesulfonamide]	87%
Cc1cc(-c2c(F)cccc2F)c(C2CC2C(=O)N2CCCC(NS(C)(=O)=O)C2)cn1 (racemic) [Example 267, a mixture of rac-N-[(3R)-1-{(1R,2R)-2-[4-(2,6-difluorophenyl)-6-methylpyridin-3-yl]cyclopropane-1-carbonyl}piperidin-3-yl]methanesulfonamide and rac-N-[(3S)-1-{(1R,2R)-2-[4-(2,6-difluorophenyl)-6-methylpyridin-3-yl]cyclopropane-1-carbonyl}piperidin-3-yl]methanesulfonamide]	87%
Cc1cc(-c2c(F)cccc2F)c(C2CC2C(=O)N2CC[C@H](NS(C)(=O)=O)C2)cn1 (mixture of isomers) [Example 268, a mixture of rac-N-[(3R)-1-{(1R,2R)-2-[4-(2,6-difluorophenyl)-6-methylpyridin-3-yl]cyclopropane-1-carbonyl}pyrrolidin-3-yl]methanesulfonamide and rac-N-[(3S)-1-{(1R,2R)-2-[4-(2,6-difluorophenyl)-6-methylpyridin-3-yl]cyclopropane-1-carbonyl}pyrrolidin-3-yl]methanesulfonamide]	80%
CS(=O)(=O)NCC1CN(C(=O)C2CC2c2ccccc2-c2c(F)cccc2F)CCC1(F)F (racemic) [Example 275, a mixture of rac-N-({(3R)-1-[(1R,2R)-2-(2′,6′-difluoro[1,1′-biphenyl]-2-yl)cyclopropane-1-carbonyl]-4,4-difluoropiperidin-3-yl}methyl)methanesulfonamide and rac-N-({(3S)-1-[(1R,2R)-2-(2′,6′-difluoro[1,1′-biphenyl]-2-yl)cyclopropane-1-carbonyl]-4,4-difluoropiperidin-3-yl}methyl)methanesulfonamide]	57%
CS(=O)(=O)NCC1CN(C(=O)C2CC2c2ccccc2-c2c(F)cccc2F)CC1(F)F (racemic) [Example 285, a mixture of rac-N-({(3R)-1-[(1R,2R)-2-(2′,6′-difluoro[1,1′-biphenyl]-2-yl)cyclopropane-1-carbonyl]-4,4-difluoropyrrolidin-3-yl}methyl)methanesulfonamide and rac-N-({(3S)-1-[(1R,2R)-2-(2′,6′-difluoro[1,1′-biphenyl]-2-yl)cyclopropane-1-carbonyl]-4,4-difluoropyrrolidin-3-yl}methyl)methanesulfonamide]	63%
CS(=O)(=O)N[C@H]1CCN(C(=O)C2(C#N)CC2c2ccccc2-c2c(F)cccc2F)C1 (mixture of isomers) [Example 316, a mixture of rac-N-{(3S)-1-[(1R,2S)-1-cyano-2-(2′,6′-difluoro[1,1′-biphenyl]-2-yl)cyclopropane-1-carbonyl]pyrrolidin-3-yl}methanesulfonamide and N-{(3S)-1-[(1S,2R)-1-cyano-2-(2′,6′-difluoro[1,1′-biphenyl]-2-yl)cyclopropane-1-carbonyl]pyrrolidin-3-yl}methanesulfonamide]	88%
CS(=O)(=O)NC1CCN(C(=O)C2CC2c2cscc2-c2c(F)cccc2F)C1 (racemic) [Example 321, a mixture of rac-N-[(3R)-1-{(1R,2R)-2-[4-(2,6-difluorophenyl)thiophen-3-yl]cyclopropane-1-carbonyl}pyrrolidin-3-yl]methanesulfonamide and rac-N-[(3R)-1-{(1R,2R)-2-[4-(2,6-difluorophenyl)thiophen-3-yl]cyclopropane-1-carbonyl}pyrrolidin-3-yl]methanesulfonamide]	95%
Cc1scc(-c2c(F)cccc2F)c1C1CC1C(=O)N1CCC(NS(C)(=O)=O)C1 (racemic) [Example 329, a mixture of rac-N-[(3R)-1-{(1R,2R)-2-[4-(2,6-difluorophenyl)-2-methylthiophen-3-yl]cyclopropane-1-carbonyl}pyrrolidin-3-yl]methanesulfonamide and rac-N-[(3S)-1-{(1R,2R)-2-[4-(2,6-difluorophenyl)-2-methylthiophen-3-yl]cyclopropane-1-carbonyl}pyrrolidin-3-yl]methanesulfonamide]	91%
CS(=O)(=O)N[C@H]1CCN(C(=O)C2CC2c2c(F)cccc2-c2c(F)cccc2F)C1 (single isomer, unassigned) [Example 195, N-{(3S)-1-[(1R,2R)-2-(2′,3,6′-trifluoro[1,1′-biphenyl]-2-yl)cyclopropane-1-carbonyl]pyrrolidin-3-yl}methanesulfonamide, or N-{(3S)-1-[(1S,2S)-2-(2′,3,6′-trifluoro[1,1′-biphenyl]-2-yl)cyclopropane-1-carbonyl]pyrrolidin-3-yl}methanesulfonamide]	99%
CS(=O)(=O)N[C@H]1CCN(C(=O)C2CC2c2ccc(F)cc2-c2c(F)cccc2F)C1 (single isomer, unassigned) [Example 200, N-{(3S)-1-[(1R,2R)-2-(2′,5,6′-trifluoro[1,1′-biphenyl]-2-yl)cyclopropane-1-carbonyl]pyrrolidin-3-yl}methanesulfonamide, or N-{(3S)-1-[(1S,2S)-2-(2′,5,6′-trifluoro[1,1′-biphenyl]-2-yl)cyclopropane-1-carbonyl]pyrrolidin-3-yl}methanesulfonamide]	103%
CS(=O)(=O)N[C@H]1CCN(C(=O)C2CC2(F)c2ccccc2-c2c(F)cccc2F)C1 (single isomer, unassigned) [Example 304, N-{(3S)-1-[(1S,2S)-2-(2′,6′-difluoro [1,1′-biphenyl]-2-yl)-2-fluorocyclopropane-1-carbonyl]pyrrolidin-3-yl}methanesulfonamide, or N-{(3S)-1-[(1R,2R)-2-(2′,6′-difluoro[1,1′-biphenyl]-2-yl)-2-fluorocyclopropane-1-carbonyl]pyrrolidin-3-yl}methanesulfonamide]	93%
